Experimental data reported in ChEMBL document CHEMBL1201862, “PubChem BioAssay data set” (2004).
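Dose response: 5 concentrations. Exposure: 48 h. Format: 96-well plates. Endpoint: linear interpolation; highest concentration if not reached. GI50 marks 50% less growth.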 The source made the active and inactive calls. No stated cut-off is given here; in the data, active = GI50 up to about 1.1 µM and inactive = higher.

Columns and labels:
Test in all cases: inhibition of tumour cell growth, NCI panel, 48 h
NCI/ADR-RES = test system: NCI/ADR-RES
DU-145 = test system: DU-145
UO-31 = test system: UO-31
LOX IMVI = test system: LOX IMVI
MDA-MB-231 = test system: MDA-MB-231
TK-10 = test system: TK-10
IGROV-1 = test system: IGROV-1
MDA-MB-435 = test system: MDA-MB-435
BT-549 = test system: BT-549
SW-620 = test system: SW-620
SK-MEL-2 = test system: SK-MEL-2
SK-OV-3 = test system: SK-OV-3
NCI-H23 = test system: NCI-H23
T47D = test system: T47D
SNB-19 = test system: SNB-19
MCF7 = test system: MCF7
HOP-92 = test system: HOP-92
A549 = test system: A549
NCI-H522 = test system: NCI-H522
Malme-3M = test system: Malme-3M

Measured: GI50

CC(=O)c1cn(-c2ccc(Cl)cc2)c(=O)c2c(N)n[nH]c12
inactive: NCI/ADR-RES > 100 µM | DU-145 > 100 µM | UO-31 > 100 µM | LOX IMVI 43 µM | MDA-MB-231 > 100 µM | TK-10 > 100 µM | IGROV-1 > 100 µM | MDA-MB-435 > 100 µM | BT-549 2.56 µM | SW-620 > 100 µM | SK-MEL-2 > 100 µM | SK-OV-3 > 100 µM | NCI-H23 > 100 µM | T47D > 100 µM | SNB-19 > 100 µM

COC(=O)C(CCCCN)NC(C)=O.Cc1ccc(C(=O)Nc2ccc(S(=O)(=O)O)c3cc(S(=O)(=O)O)cc(S(=O)(=O)O)c23)cc1NC(=O)c1cccc(NC(=O)Nc2cccc(C(=O)Nc3cc(C(=O)Nc4ccc(S(=O)(=O)O)c5cc(S(=O)(=O)O)cc(S(=O)(=O)O)c45)ccc3C)c2)c1
inactive: NCI/ADR-RES > 50 µM | DU-145 > 50 µM | UO-31 > 50 µM | MCF7 > 50 µM | LOX IMVI 44.8 µM | MDA-MB-231 > 50 µM | HOP-92 > 50 µM | A549 > 50 µM | MDA-MB-435 > 50 µM | BT-549 > 50 µM | SW-620 > 50 µM | SK-MEL-2 > 50 µM | SK-OV-3 > 50 µM | NCI-H23 > 50 µM | T47D > 50 µM | SNB-19 > 50 µM

NC(=O)CCC(NC(=O)c1c2ccccc2nc2ccccc12)C(=O)O (configuration not stated)
inactive: NCI/ADR-RES > 100 µM | DU-145 > 100 µM | UO-31 > 100 µM | MCF7 > 100 µM | NCI-H522 > 100 µM | LOX IMVI > 100 µM | Malme-3M > 100 µM | MDA-MB-231 > 100 µM | TK-10 > 100 µM | HOP-92 > 100 µM | IGROV-1 > 100 µM | A549 > 100 µM | MDA-MB-435 > 100 µM | BT-549 > 100 µM | SW-620 > 100 µM | SK-MEL-2 > 100 µM | SK-OV-3 > 100 µM | NCI-H23 > 100 µM | SNB-19 > 100 µM

OCCCCCCCCCCCOc1ccc(C2OCC3(CO2)COC(c2ccc(OCCCCCCCCCCCO)cc2)OC3)cc1 (configuration not stated)
inactive: NCI/ADR-RES > 50 µM | DU-145 > 50 µM | UO-31 > 50 µM | MCF7 > 50 µM | LOX IMVI > 50 µM | Malme-3M > 50 µM | MDA-MB-231 > 50 µM | TK-10 > 50 µM | IGROV-1 > 50 µM | A549 > 50 µM | MDA-MB-435 > 50 µM | BT-549 > 50 µM | SW-620 > 50 µM | SK-MEL-2 > 50 µM | SK-OV-3 > 50 µM | NCI-H23 > 50 µM | T47D > 50 µM | SNB-19 > 50 µM

CCOC(=O)[C@H]1C[C@@H](C(=O)c2ccccc2)N2N=C(c3ccc(Br)cc3)C=C[C@H]12
inactive: NCI/ADR-RES > 100 µM | DU-145 > 100 µM | UO-31 > 100 µM | MCF7 > 100 µM | LOX IMVI > 100 µM | MDA-MB-231 > 100 µM | TK-10 > 100 µM | A549 > 100 µM | MDA-MB-435 > 100 µM | BT-549 > 100 µM | SW-620 > 100 µM | SK-MEL-2 > 100 µM | SK-OV-3 > 100 µM | NCI-H23 > 100 µM | T47D > 100 µM | SNB-19 > 100 µM

COC(=O)C(CCC1C=CN(S(=O)(=O)c2ccc(C)cc2)C1)/N=C/c1ccccc1 (configuration not stated)
inactive: NCI/ADR-RES > 100 µM | DU-145 43 µM | UO-31 65.5 µM | MCF7 34.2 µM | NCI-H522 34.4 µM | LOX IMVI 47.4 µM | MDA-MB-231 39.6 µM | TK-10 83.2 µM | HOP-92 29.7 µM | IGROV-1 38.4 µM | A549 42.4 µM | MDA-MB-435 33.2 µM | BT-549 39.6 µM | SW-620 41.1 µM | SK-MEL-2 20.1 µM | SK-OV-3 80 µM | NCI-H23 26.4 µM | T47D 47.6 µM | SNB-19 45 µM

O=[N+]([O-])c1cccc(-c2ccc([C@H]3CC(c4ccc(Cl)cc4)=NN3)o2)c1
inactive: NCI/ADR-RES 7.83 µM | DU-145 15.3 µM | UO-31 22.1 µM | MCF7 16.3 µM | NCI-H522 21.2 µM | Malme-3M 15.8 µM | TK-10 19.6 µM | HOP-92 17.3 µM | IGROV-1 21 µM | A549 > 100 µM | MDA-MB-435 19.2 µM | BT-549 17.6 µM | SW-620 19.5 µM | SK-OV-3 28.8 µM | T47D 11.4 µM | SNB-19 38.4 µM

C=C1[C@H](OC(C)=O)[C@H]2[C@@H](OC(C)=O)[C@@H](C)C[C@]2(C)C(=O)[C@H](C)/C=C/C(C)(C)C(=O)[C@H](OCC(C)C)[C@H]1OC(C)=O
inactive: NCI/ADR-RES > 25 µM | DU-145 > 25 µM | UO-31 > 25 µM | MCF7 > 25 µM | NCI-H522 > 25 µM | LOX IMVI > 25 µM | MDA-MB-231 > 25 µM | TK-10 > 25 µM | HOP-92 > 25 µM | IGROV-1 > 25 µM | MDA-MB-435 20.7 µM | BT-549 > 25 µM | SW-620 > 25 µM | SK-MEL-2 > 25 µM | SK-OV-3 > 25 µM | NCI-H23 > 25 µM | T47D > 25 µM | SNB-19 > 25 µM

CN1CN(c2ccccc2)C2(CCN(CCCN(C)c3ccc(F)cc3)CC2)C1=O
inactive: NCI/ADR-RES 20.6 µM | DU-145 23.9 µM | UO-31 16.2 µM | MCF7 15.2 µM | NCI-H522 13.9 µM | LOX IMVI 15.8 µM | Malme-3M 19.5 µM | MDA-MB-231 14.3 µM | TK-10 18.9 µM | IGROV-1 16.5 µM | A549 23.2 µM | MDA-MB-435 18.2 µM | BT-549 15.2 µM | SW-620 17.8 µM | SK-MEL-2 17.5 µM | SK-OV-3 17.1 µM | NCI-H23 19.1 µM | T47D 16.7 µM | SNB-19 20 µM

CC1(C)C2CCC1C(=O)C(C=O)C2 (configuration not stated)
inactive: NCI/ADR-RES > 100 µM | DU-145 > 100 µM | UO-31 > 100 µM | MCF7 > 100 µM | NCI-H522 > 100 µM | LOX IMVI > 100 µM | Malme-3M > 100 µM | MDA-MB-231 > 100 µM | TK-10 > 100 µM | IGROV-1 > 100 µM | A549 > 100 µM | MDA-MB-435 > 100 µM | BT-549 > 100 µM | SW-620 > 100 µM | SK-MEL-2 > 100 µM | SK-OV-3 > 100 µM | NCI-H23 > 100 µM | T47D > 100 µM | SNB-19 > 100 µM

COc1cccc2c1OC(c1ccc(Cl)cc1)C([N+](=O)[O-])=C2 (configuration not stated)
inactive: NCI/ADR-RES 3.79 µM | DU-145 3.68 µM | UO-31 1.77 µM | MCF7 1.2 µM | NCI-H522 1.59 µM | LOX IMVI 1.2 µM | Malme-3M 1.87 µM | MDA-MB-231 3.52 µM | TK-10 4.95 µM | IGROV-1 2.25 µM | A549 9.82 µM | MDA-MB-435 2.42 µM | BT-549 1.24 µM | SK-OV-3 3.57 µM | NCI-H23 3.77 µM | T47D 2.34 µM | SNB-19 4.28 µM

O=P(O)(O)c1ccc2c(c1)OCCOCCOCCOCCO2
inactive: DU-145 > 100 µM | UO-31 > 100 µM | MCF7 > 100 µM | NCI-H522 > 100 µM | LOX IMVI > 100 µM | Malme-3M > 100 µM | MDA-MB-231 > 100 µM | TK-10 > 100 µM | IGROV-1 > 100 µM | A549 > 100 µM | MDA-MB-435 > 100 µM | BT-549 > 100 µM | SW-620 > 100 µM | SK-OV-3 > 100 µM | NCI-H23 > 100 µM | T47D > 100 µM | SNB-19 > 100 µM

CC1(C)C2CCC1(CC(=O)O)C(Cl)C2 (configuration not stated)
inactive: NCI/ADR-RES > 100 µM | DU-145 > 100 µM | UO-31 > 100 µM | MCF7 > 100 µM | NCI-H522 > 100 µM | LOX IMVI > 100 µM | Malme-3M > 100 µM | MDA-MB-231 > 100 µM | TK-10 > 100 µM | IGROV-1 > 100 µM | A549 > 100 µM | MDA-MB-435 > 100 µM | BT-549 > 100 µM | SW-620 > 100 µM | SK-MEL-2 > 100 µM | SK-OV-3 > 100 µM | NCI-H23 > 100 µM | T47D > 100 µM | SNB-19 > 100 µM

CC[C@H](C)[C@H]1NC(=O)[C@@H](NC(=O)[C@@H](CC(C)C)N(C)C(=O)C2CCCN2C(=O)[C@H](C)O)[C@@H](C)OC(=O)[C@H](Cc2ccc(OC)cc2)N(C)C(=O)[C@@H]2CCCN2C(=O)[C@H](CCCCNC(=O)OCc2ccccc2)NC(=O)[C@H](C)C(=O)[C@H](C(C)C)OC(=O)C[C@@H]1O (some centres not stated)
inactive: NCI/ADR-RES > 25 µM | DU-145 9.84 µM | UO-31 23.4 µM | MCF7 2.77 µM | NCI-H522 3.37 µM | LOX IMVI 7.4 µM | Malme-3M 4.89 µM | TK-10 6.97 µM | HOP-92 3.49 µM | IGROV-1 7.74 µM | A549 3.9 µM | MDA-MB-435 5.86 µM | BT-549 7.93 µM | SW-620 7.74 µM | SK-MEL-2 1.96 µM | SK-OV-3 7.69 µM | NCI-H23 10.7 µM | T47D 7.67 µM | SNB-19 2.66 µM
